The values that follow come from ChEMBL document CHEMBL1201862, “PubChem BioAssay data set” (2004).

SMILES strings stand for the structures.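 1) Cells in 96-well plates. 2) Compound, 48 h, 5 concentrations. 3) Linear interpolation between surrounding doses. 4) Unreached endpoint = highest concentration. GI50 is the concentration that inhibits growth by half.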 The source made the active and inactive calls. Cut-off read from the data, not from the text of the source: active = GI50 up to about 1.1 µM and inactive = higher. Some results are limits rather than exact numbers.

Assay in all cases: growth of human tumour cells (NCI), 48 h
Assay [1] deals with OVCAR-8.
Assay [2] relates to A498.
Assay [3] deals with SF-268.
Assay [4] has as its system HL-60.
For assay [5], the system named is OVCAR-4.
Assay [6] deals with SK-MEL-2.
The subject of assay [7] is ACHN.
The subject of assay [8] is HCT-15.
Assay [9] concerns HOP-62.
Assay [10] deals with LOX IMVI.
For assay [11], the system named is Malme-3M.
Assay [12] has as its system CAKI-1.
In assay [13] the test system is HT-29.
For assay [14], the system named is MDA-N.
Assay [15] deals with IGROV-1.
Assay [16] concerns UACC-62.
For assay [17], the system named is SK-MEL-5.
Assay [18] has as its system Hs-578T.
The test system of assay [19] is SNB-75.
In assay [20] the test system is HCC 2998.

Take `S=C(S)NCCCn1ccnc1`: the GI50 in assay [1], in assay [2], in assay [3], in [4], in assay [5] and in [6] was > 100 µM (inactive) each time. The GI50 in assay [7] is > 100 µM (inactive); in [8] it was more than 100 µM; in assay [9], > 100 µM (inactive); in assay [10], > 100 µM (inactive); in [11] it was > 100 µM (inactive); in [12] it was > 100 µM (inactive). Moreover, the GI50 in assay [13], in assay [14], in [15], in assay [16] and in assay [17] was > 100 µM (inactive) in each case.

For the compound `CC(C)(C)OC(=O)NC(Cc1ccccc1)OCc1ccccc1` (configuration not stated), the GI50 in assay [1] is 20.1 µM (inactive); in assay [3], 18.4 µM (inactive); in assay [6], 29.4 µM (inactive); in [7], 19.4 µM (inactive); in assay [18], 23.3 µM (inactive); in assay [8], 19.4 µM. Moreover, the GI50 in assay [9] is 18.9 µM (inactive); in assay [11], 23.6 µM (inactive); in [12] it was 19.6 µM (inactive); in assay [13], 21.1 µM (inactive); in [19], 12.2 µM (inactive); in [14], 19.3 µM (inactive). Further, the GI50 in assay [15] was > 10 µM (inactive); in [16], 15 µM (inactive); in assay [20], 23.9 µM (inactive); in assay [17], 15.5 µM (inactive).

Consider `N#Cc1nc(COCc2ccccc2)oc1N`, for which the GI50 in [1], in assay [3], in assay [5], in assay [6], in [7] and in [18] was > 100 µM (inactive) each time. In addition, the GI50 is 51.1 µM in assay [8]; > 100 µM (inactive) in [9]; > 100 µM (inactive) in assay [10]; 28.7 µM (inactive) in assay [11]; > 100 µM (inactive) in assay [12]; > 100 µM (inactive) in assay [13]. Also, the GI50 in [19], in assay [14], in assay [15], in assay [16] and in assay [20] was > 100 µM (inactive) throughout.

As for `O=C1/C(=C/C=C/c2ccccc2)N=C(c2ccccc2)N1C1Nc2cc3c(cc2S1)NC(N1C(=O)/C(=C/C=C/c2ccccc2)N=C1c1ccccc1)S3` (configuration not stated), the GI50 in assay [1] is 44.4 µM (inactive); in assay [2] it was 15.5 µM (inactive); in [3], 9.68 µM (inactive); in [4], 29.1 µM (inactive); in assay [5] it was 73.8 µM (inactive); in [6] it was > 100 µM (inactive). In addition, the GI50 is 41.8 µM (inactive) in assay [7]; 10.5 µM (inactive) in assay [18]; 40.9 µM in assay [8]; > 100 µM (inactive) in [9]; 48.8 µM (inactive) in assay [10]; 73.6 µM (inactive) in assay [12]. Further, the GI50 was 23.3 µM (inactive) in assay [13], 48 µM (inactive) in assay [15], 11.4 µM (inactive) in assay [20] and 55 µM (inactive) in assay [17].

Regarding `COc1ccc(C2c3c[nH]nc3CC3CCCCC32)cc1` (configuration not stated), the GI50 is 17.3 µM (inactive) in assay [1]; 11 µM (inactive) in assay [2]; 18.2 µM (inactive) in [3]; 23.4 µM (inactive) in assay [4]; 16.7 µM (inactive) in [5]; 17.9 µM (inactive) in assay [6]. The GI50 in assay [7] is 19 µM (inactive); in [8], 15.7 µM; in [9] it was 21.3 µM (inactive); in assay [10], 17.9 µM (inactive); in assay [11], 19.5 µM (inactive); in assay [12], 14.2 µM (inactive). Also, the GI50 in assay [13] was 23.4 µM (inactive); in [19], 13.1 µM (inactive); in assay [14], 14.4 µM (inactive); in assay [15] it was 12.7 µM (inactive); in assay [16], 11.9 µM (inactive); in [20], 20.3 µM (inactive). In assay [17], the GI50 is 15.7 µM (inactive).

`CN(C)c1nncc2[nH]nnc12`: the GI50 in [1], in [2], in assay [4], in assay [5], in assay [6] and in [7] was > 100 µM (inactive) throughout. In addition, the GI50 in assay [8] is more than 100 µM; in assay [9], > 100 µM (inactive); in [10], > 100 µM (inactive); in assay [11], 92.3 µM (inactive); in [12], > 100 µM (inactive); in [13], > 100 µM (inactive). For the same compound, the GI50 in assay [19], in assay [14], in assay [15], in [16], in [20] and in assay [17] was > 100 µM (inactive) each time.

`Cc1ccc(S(=O)(=O)N2CCC(=O)c3cc(Br)ccc32)cc1`: the GI50 in assay [1] is 14.4 µM (inactive); in assay [2], 15 µM (inactive); in assay [3] it was 18.2 µM (inactive); in assay [5], 16.8 µM (inactive); in [6], 10.3 µM (inactive); in assay [7], 16.8 µM (inactive). In addition, the GI50 in assay [8] was 4.88 µM; in assay [9], 7.16 µM (inactive); in [10] it was 6.52 µM (inactive); in assay [11], 22 µM (inactive); in assay [12], 11.8 µM (inactive); in [13] it was 6.25 µM (inactive). Besides, the GI50 was 14.6 µM (inactive) in assay [19]; 3.01 µM (inactive) in [14]; 6.1 µM (inactive) in [15]; 5.21 µM (inactive) in assay [16]; 24 µM (inactive) in [20]; 7.05 µM (inactive) in assay [17].

As for `C/C(=N\NC(=S)NNC(=S)N(C)c1ccccc1)c1ccccn1`, the GI50 in assay [1] was 0.538 µM (active); in [3], 2.91 µM (inactive); in assay [4], 0.343 µM (active); in [5], 1.75 µM (inactive); in assay [6], 5.68 µM (inactive); in assay [7] it was 0.628 µM (active). Further, the GI50 was 26 µM (inactive) in assay [18]; 1.16 µM in [8]; 0.885 µM (active) in assay [9]; 1.66 µM (inactive) in assay [11]; 0.977 µM (active) in assay [12]; 0.455 µM (active) in assay [13]. Besides, the GI50 is 6.76 µM (inactive) in assay [19], 4.06 µM (inactive) in [14], 0.764 µM (active) in assay [15] and 1.32 µM (inactive) in [20].

For the compound `N#Cc1sc2c(c1OC(=O)c1ccco1)c(=O)n(-c1ccccc1)c(=S)n2-c1ccccc1`, the GI50 in [1] was 29.9 µM (inactive); in assay [3], 32.4 µM (inactive); in [4], 67.5 µM (inactive); in assay [5], 23.6 µM (inactive); in assay [6], 28.8 µM (inactive); in assay [18] it was 57.4 µM (inactive). The GI50 in assay [8] is 20 µM; in assay [9] it was 25.9 µM (inactive); in assay [10] it was 16.2 µM (inactive); in assay [11] it was 22.2 µM (inactive); in [12], 39.7 µM (inactive); in assay [13], 32.9 µM (inactive). Further, the GI50 in assay [19] is 18.8 µM (inactive); in assay [14], 20.8 µM (inactive); in assay [15], > 10 µM (inactive); in assay [16] it was 15.3 µM (inactive); in [20], 55.7 µM (inactive); in [17], 17.6 µM (inactive).

As to `Clc1ccc(Cn2cc(/C=N/n3cnnc3)c3ccccc32)cc1`, the GI50 in assay [1] is 40.4 µM (inactive); in assay [2], 1.49 µM (inactive); in [3], 45.9 µM (inactive); in [4] it was 40.6 µM (inactive); in assay [5], 33.5 µM (inactive); in assay [6], 26.7 µM (inactive). In addition, the GI50 in assay [7] is 51.1 µM (inactive); in [18] it was 37.1 µM (inactive); in assay [8], 60.1 µM; in assay [9], 74.3 µM (inactive); in assay [10] it was 54.6 µM (inactive); in [11], 89.3 µM (inactive). For the same compound, the GI50 is 21.5 µM (inactive) in [12]; > 100 µM (inactive) in assay [13]; 21.1 µM (inactive) in [19]; 24.1 µM (inactive) in [15]; 29 µM (inactive) in [16]; 14.4 µM (inactive) in assay [20]. In assay [17], the GI50 is 19.5 µM (inactive).

On to `COc1cc2c(cc1OC)-c1cc3ccc(OC)c(OC)c3c[n+]1CC2` [PALMATINE CHLORIDE], for which the GI50 in assay [1] was > 100 µM (inactive); in [3], 82.4 µM (inactive); in assay [4], > 100 µM (inactive); in assay [5], > 100 µM (inactive); in assay [6] it was 97.1 µM (inactive); in [7] it was > 100 µM (inactive). In addition, the GI50 is > 100 µM (inactive) in assay [18]; more than 100 µM in assay [8]; > 100 µM (inactive) in assay [9]; > 100 µM (inactive) in [11]; > 100 µM (inactive) in assay [12]; > 100 µM (inactive) in [13]. In addition, the GI50 in assay [19] was > 100 µM (inactive); in assay [14] it was > 100 µM (inactive); in assay [15], > 100 µM (inactive); in assay [16], > 100 µM (inactive); in [20], > 100 µM (inactive); in assay [17] it was 34.8 µM (inactive).
